The text below walks through data of patent publication US6774141B1, “Calanolide and related antiviral compounds, compositions, and uses thereof” (The United States of America as represented by the …, priority 1992, dated 2004).

As usually defined, the EC50 is the midpoint of the concentration-response curve. For orientation: IC50 means the concentration that gives 50% inhibition.

Where two headings read alike, the source gives them in different places.

Series [1] concerns HIV-1. In words: microbe, parasite or virus in culture. Conditions: for anti-HIV activity in the primary screening assay / inhibition of the cytopathic effects of HIV-1 upon CEM-SS cells: result in words; for antiviral potency relative to calanolide A: overall of XTT and BCECF assays; for inhibition of the cytopathic effects of HIV-1 upon CEM-SS cells: battery of interrelated assays, 6 days. From the text:
Pure compounds were initially evaluated for antiviral activity using an XTT-tetrazolium anti-HIV primary screening assay described previously (Boyd, M. R., in AIDS Etiology, Diagnosis, Treatment and Prevention (DeVita V. T., Jr., Hellman S., Rosenberg S. A., eds.), pp 305-319 (Philadelphia: Lippincott, 1988); Gustafson, K. R., et al., J. Med. Chem., 35, 1978-1986 (1992); Weislow, O. S., et al., J. Natl. Cancer Inst., 81, 577-586 (1989); Gulakowski, R. J., et al., J. Virol. Methods, 33, 87-100 (1991)). The CEM-SS human lymphocytic target cell line used in all assays was maintained in RPMI 1640 medium (Gibco, Grand Island, N.Y.), without phenol red, and was supplemented with 5% fetal bovine serum, 2 mM L-glutamine and 50 μg/ml gentamicin (complete medium). Exponentially-growing cells were pelleted and resuspended at a concentration of 2.0×10^5 cells/ml in complete medium. The Haitian variant of HIV, HTLV-IIIRF (3.54×10^6 SFU/ml), was used throughout. Frozen virus stock solutions were thawed immediately before use and resuspended in complete medium to yield […]. The appropriate amounts of the pure compounds for anti-HIV evaluations were dissolved in 100% dimethylsulfoxide (DMSO), then diluted in complete medium to the desired initial concentration (and with the final DMSO content not exceeding 1%). All serial drug dilutions, reagent additions, and plate-to-plate transfers were carried out with an automated Biomek 1000 Workstation (Beckman Instruments, Palo Alto, Calif.).
Briefly, the procedure was as follows. Uninfected CEM-SS cells were plated at a density of 1×10^4 cells in 50 μl of complete medium. Diluted HIV-1 virus was then added to appropriate wells in a volume of 50 μl to yield a multiplicity of infection of 0.6. Appropriate cell, virus and drug controls were incorporated in each experiment; the final volume in each microtiter well was 200 μl. Quadruplicate wells were used for virus-infected cells, and duplicate wells were used for uninfected cells. Plates were incubated at 37° C. in an atmosphere containing 5% CO2 for 6 days. Subsequently, aliquots of cell-free supernatant were removed from each well using the Biomek, and analyzed for reverse transcriptase activity, p24 antigen production and synthesis of infectious virions as described (Gulakowski, R. J., et al., J. Virol. Methods, 33, 87-100 (1991)). Cellular growth or viability then was estimated on the remaining contents of each well using the XTT (Weislow, O. S., et al., J. Natl. Cancer Inst., 81, 577-586 (1989)), BCECF (Rink, T. L., et al., J. Cell. Biol., 95, 189-196 (1982)) and DAPI (McCaffrey, T. A., et al., In Vitro Cell Develop. Biol., 24, 247-252 (1988)) assays as described (Gulakowski, R. J., et al., J. Virol. Methods, 33, 87-100 (1991)).

Series [2] has as its system CEM-SS cells. The experiment in a line: XTT assay, direct cytotoxicity upon uninfected CEM-SS target cells. The class given is cell-based, human. From the text: (§1) Briefly, the procedure was as follows.
Series [3] has as its system HIV-1. Particulars: for EC50: read-out: EC50 μM (±S.D.) RT, quadruplicate tests, supernatant reverse transcriptase.
Series [4] relates to HIV-1. Conditions: for EC50: read-out: EC50 μM (±S.D.) p24, quadruplicate tests, supernatant viral core protein.
In series [5] the test system is HIV-1. Conditions: for EC50: read-out: EC50 μM (±S.D.) SFU, quadruplicate tests, supernatant syncytium-forming units.
Series [6] has as its system CEM-SS cells. The experiment in a line: BCECF assay, direct cytotoxicity upon uninfected CEM-SS target cells. Conditions: quadruplicate tests, cytotoxicity to CEM-SS, read-out: IC50 μM (± SD) BCECF. The class given is cell-based, human.
Description: as §1

Series [7] concerns HIV-1. The experiment in a line: microbe, parasite or virus in culture. Particulars: Human immunodeficiency virus 1, CEM-SS, read-out: EC50 μM (±S.D.) RT.
The test system of series [8] is HIV-1. In words: microbe, parasite or virus in culture. Particulars: Human immunodeficiency virus 1, CEM-SS, read-out: EC50 μM (±S.D.) SFU.
In series [9] the test system is HIV-1. The experiment in a line: microbe, parasite or virus in culture. Conditions: Human immunodeficiency virus 1, CEM-SS, read-out: EC50 μM (±S.D.) p24.
Series [10] can be described thus: XTT assay, direct cytotoxicity upon uninfected CEM-SS target cells. The class given is cell-based, human. Particulars: human, uninfected CEM-SS cells; FIGS. 4A-D, CEM-SS cells, 6 days.
Description: as §1

The subject of series [11] is HIV. Conditions: in most patients; cited from earlier work.
Where [12] appears, read: primary screening assay, HIV-1 in CEM-SS cells.
Setting [13] is: primary screening assay, cytotoxicity to CEM-SS cells, read-out: IC50.
Setting [14] is: read-out: EC50 μM (± SD) BCECF, quadruplicate tests, HIV-1 strain RF, CEM-SS.
Setting [15] is: read-out: EC50 μM (± SD) XXT, quadruplicate tests, HIV-1 strain RF, CEM-SS.
The mark [16] stands for this setting: quadruplicate tests, cytotoxicity to CEM-SS, read-out: IC50 μM (± SD) XXT.
[17] abbreviates: HIV-1-infected CEM-SS, FIG. 4D, result in words.

As to `CCCc1cc(=O)oc2c3c(c4c(c12)OC(C)(C)C=C4)O[C@H](C)[C@@H](C)[C@@H]3OC(C)=O` [12-acetoxycalanolide A], the “anti-HIV activity in the primary screening assay” value (“anti-HIV activity” below) in series [1] (HIV-1 in CEM-SS cells) is listed as “active”. Besides, in series [1] (setting [12]), it took 2.7 µM to reach a half-maximal effect (EC50). Moreover, in [2] (setting [13]), the IC50 came to 13 µM.
For the compound `CCCc1cc(=O)oc2c3c(c4c(c12)OC(C)(C)C=C4)O[C@H](C)[C@@H](C)[C@@H]3OC` [12-methoxycalanolide A], in series [1] (HIV-1 in CEM-SS cells), the “anti-HIV activity” value was “not detectable”.
On to `CCCc1cc(=O)oc2c3c(c4c(c12)OC(C)(C)C=C4)O[C@H](C)[C@@H](C)[C@H]3OC` [12-methoxycalanolide B], for which the “anti-HIV activity” value in [1] (HIV-1 in CEM-SS cells) is reported as “weak but detectable”.
Same read-out and setting: next, `CCCc1cc(=O)oc2c3c(c4c(c12)OC(C)(C)C=C4)OC(C)C(C)C3O` (stereo not shown) [Compound 6]: “weak but detectable”.
As to `CCCc1cc(=O)oc2c3c(c4c(c12)OC(C)(C)C=C4)O[C@@H](C)[C@H](C)[C@@H]3O` [Costatolide, costatolide], the EC50 is 0.12 µM in series [3]; 0.2 µM in [1] (setting [14]); 0.23 µM in series [1] (setting [15]); 0.11 µM in [4]; 0.14 µM in series [5]. The “antiviral potency relative to calanolide A” value in series [1] (HIV-1 strain RF, CEM-SS) is reported as “about ⅔”. Further, the IC50 in series [6] worked out at 8 µM; in series [2] (setting [16]), 10 µM.
With `CCCc1cc(=O)oc2c3c(c4c(c12)OC(C)(C)CC4)O[C@H](C)[C@@H](C)[C@@H]3O` [DH-calanolide A, 7,8-dihydrocalanolide A], the 50% effective concentration (EC50) in series [3] turned out to be 0.13 µM; in [1] (setting [14]), 0.19 µM; in [1] (setting [15]), 0.23 µM; in series [4], 0.12 µM; in series [5], 0.17 µM. Besides, the “antiviral potency relative to calanolide A” value in series [1] (HIV-1 strain RF, CEM-SS) is reported as “about ⅔”. Moreover, the half-maximal inhibitory concentration (IC50) worked out at 18.7 µM in series [6] and 12.5 µM in [2] (setting [16]).
For `CCCc1cc(=O)oc2c3c(c4c(c12)OC(C)(C)CC4)O[C@@H](C)[C@H](C)[C@@H]3O` [DH-costatolide, 7,8-dihydrocostatolide], the EC50 in [3] stood at 0.25 µM; in series [1] (setting [14]) it was 0.31 µM; in [1] (setting [15]), 0.3 µM; in series [4] it was 0.24 µM; in series [5] it was 0.19 µM. In series [1] (HIV-1 strain RF, CEM-SS), the “antiviral potency relative to calanolide A” value is “about ⅓”. In addition, the figures for the IC50 in series [6] and in series [2] (setting [16]) were 10.3 µM and 18.7 µM, respectively.
Regarding `CCCc1cc(=O)oc2c3c(c4c(c12)OC(C)(C)C=C4)O[C@H](C)[C@@H](C)[C@@H]3O` [calanolide A], in series [3] (setting [17]), the “production of RT” value is “strikingly inhibited”. The “anti-HIV activity” value in series [1] (HIV-1 in CEM-SS cells) is listed as “complete protection”. In addition, the EC50 in series [1] (Human immunodeficiency virus 1, CEM-SS, 144 h, read-out: EC50, inhibition of the cytopathic effects of HIV-1) is around 0.1 µM; in series [1] (Human immunodeficiency virus 1, CEM-SS, read-out: EC50 μM (± SD) BCECF), 0.16 µM; in series [1] (Human immunodeficiency virus 1, CEM-SS, read-out: EC50 μM (± SD) XXT), 0.13 µM; in [7], 0.07 µM; in [8] it was 0.08 µM; in series [9] it was 0.07 µM. Further, the “inhibition of the cytopathic effects of HIV-1 upon CEM-SS cells” value in [1] is on record as “complete inhibition”. Also, the “production of p24” value in [4] (setting [17]) is listed as “strikingly inhibited”. For the same compound, the “production of SFU” value in [5] (setting [17]) is “strikingly inhibited”. In addition, the IC50 in [6] (Homo sapiens) came out at 14.3 µM; in series [2] (Homo sapiens, quadruplicate tests, cytotoxicity to CEM-SS, read-out: IC50 μM (± SD) XXT) it was 14.3 µM. The half-inhibitory concentration (IC50) at 6 days in series [10] was around 13000 nM.
As for `Nc1ccn([C@H]2CC[C@@H](CO)O2)c(=O)n1` [ddC, 2′,3′-dideoxycytidine], the “virustatic range, dose” value in series [11] is 0.005-0.25 mg/kg body weight.
On to calanolide B, for which, in series [1] (HIV-1 in CEM-SS cells), the “anti-HIV activity” value is recorded as “complete inhibition”. Also, the “inhibition of the cytopathic effects of HIV-1 upon CEM-SS cells” value in [1] is listed as “complete protection”. This compound returned a concentration for a half-maximal effect (EC50) in series [1] (setting [12]) of 0.4 µM. Further, in series [2] (setting [13]), the IC50 is 15 µM.
